Data on 7 compounds can be found in PubChem BioAssay (NCI).

Among the test systems are SF-268 CNS; RPMI-8226 leukemia; MOLT-4 leukemia; PC-3 prostate; OVCAR-8 ovarian; U251 CNS; CAKI-1 renal; TK-10 renal; ACHN renal; UACC-62 melanoma.
What all share (assay): growth of human tumour cells (NCI), 48 h

Each structure is given as a SMILES string.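 96-well plates; 48 h exposure; 5 concentrations. Endpoints by linear interpolation between flanking doses. Not reached: highest tested concentration assigned. Here, GI50 denotes the concentration required for 50% inhibition of growth. TGI is the concentration that stops growth completely.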

Regarding `CC(C)(C)c1cc(O)c(O)c(C(C)(C)C)c1`, the GI50 was 4.77 µM in the assay with SF-268 CNS; 3.17 µM in the assay on RPMI-8226 leukemia; 3.03 µM in the assay on MOLT-4 leukemia; 3.55 µM in the assay on PC-3 prostate; 3.48 µM in the assay on OVCAR-8 ovarian; 4.35 µM in the assay with U251 CNS. Further, the GI50 in the assay with CAKI-1 renal is 2.79 µM; with TK-10 renal it was 3.08 µM; in the assay with ACHN renal, 2.15 µM; with UACC-62 melanoma, 2.54 µM. Also, the TGI amounted to 16.1 µM with SF-268 CNS; 7.69 µM in the assay on RPMI-8226 leukemia; 8.67 µM in the assay on MOLT-4 leukemia; 15.9 µM in the assay on PC-3 prostate; 16.4 µM in the assay on OVCAR-8 ovarian; 16.1 µM in the assay with U251 CNS. Moreover, the TGI in the assay on CAKI-1 renal stood at 8.63 µM; in the assay with TK-10 renal, 7.4 µM; in the assay with ACHN renal it was 4.13 µM; in the assay on UACC-62 melanoma it was 7.78 µM.
For `Cc1cc([C@@H](C)Nc2ccccc2C(=O)O)c2nc(N3CCOCC3)cc(=O)n2c1`, the GI50 with SF-268 CNS is > 10 µM; in the assay with RPMI-8226 leukemia it was > 10 µM; with MOLT-4 leukemia, 5.42 µM; with PC-3 prostate it was 3.73 µM; with OVCAR-8 ovarian it was > 10 µM; in the assay on U251 CNS, > 10 µM. Also, the GI50 with CAKI-1 renal was 6.28 µM; in the assay with TK-10 renal it was > 10 µM; in the assay on ACHN renal, > 10 µM; with UACC-62 melanoma it was 0.627 µM. Also, the TGI in the assay on SF-268 CNS, in the assay with RPMI-8226 leukemia, in the assay on MOLT-4 leukemia, with PC-3 prostate, in the assay on OVCAR-8 ovarian and in the assay on U251 CNS was > 10 µM in each case. The TGI in the assay on CAKI-1 renal, in the assay on TK-10 renal, in the assay with ACHN renal and in the assay with UACC-62 melanoma was > 10 µM in each case.
Take `O=C1/C(=C/c2ccc(F)cc2)CCOc2ccc([N+](=O)[O-])cc21`: the GI50 was 22.3 µM in the assay with SF-268 CNS; 0.862 µM in the assay with RPMI-8226 leukemia; 2.49 µM in the assay with MOLT-4 leukemia; 0.306 µM with PC-3 prostate; 2.68 µM in the assay on OVCAR-8 ovarian; 40.1 µM in the assay with U251 CNS. Further, the GI50 in the assay with CAKI-1 renal is 2.08 µM; in the assay with TK-10 renal it was 3.88 µM; in the assay on ACHN renal it was 28 µM; with UACC-62 melanoma, 2.19 µM. For the same compound, the TGI in the assay on SF-268 CNS is 53.2 µM; in the assay with RPMI-8226 leukemia, 3.14 µM; in the assay with MOLT-4 leukemia, 6.02 µM; in the assay with PC-3 prostate, 1.64 µM; in the assay with OVCAR-8 ovarian, 9.24 µM; with U251 CNS it was > 100 µM. The TGI with CAKI-1 renal is 4.73 µM; in the assay with TK-10 renal, 16.1 µM; in the assay on ACHN renal, 65.4 µM; in the assay on UACC-62 melanoma, 4.01 µM.
Take `COC(=O)C(=O)CC(=O)CCn1ncc(Cl)c(Cl)c1=O`: the TGI in the assay on SF-268 CNS worked out at 21.4 µM; in the assay with RPMI-8226 leukemia, 52.6 µM; with MOLT-4 leukemia it was 22.1 µM; in the assay with PC-3 prostate, 37.2 µM; in the assay with OVCAR-8 ovarian it was 27.9 µM; in the assay on U251 CNS it was 22 µM. In addition, the TGI is 9.42 µM in the assay with CAKI-1 renal, > 85.5 µM in the assay on TK-10 renal, 34.9 µM with ACHN renal and 25.8 µM in the assay with UACC-62 melanoma. In the assay with PC-3 prostate, the GI50 was 14.5 µM.
Take `O=C(/C=C/c1ccc(Cl)cc1)c1ccc(Cl)cc1Cl`: the GI50 with SF-268 CNS was 10.1 µM; in the assay on RPMI-8226 leukemia it was 1.42 µM; with MOLT-4 leukemia it was 0.915 µM; in the assay with PC-3 prostate, 11.2 µM; in the assay with OVCAR-8 ovarian, 8.65 µM; in the assay with U251 CNS, 7.23 µM. Also, the GI50 with CAKI-1 renal is 8.22 µM; in the assay with TK-10 renal it was 7.42 µM; with ACHN renal, 0.213 µM; with UACC-62 melanoma, 1.28 µM. For the same compound, the TGI is 21.8 µM in the assay with SF-268 CNS; 11 µM with RPMI-8226 leukemia; 2.12 µM in the assay with MOLT-4 leukemia; 31.7 µM with PC-3 prostate; 21.5 µM in the assay with OVCAR-8 ovarian; 14.1 µM in the assay on U251 CNS. The TGI was found to be 15.7 µM in the assay on CAKI-1 renal, 14 µM in the assay on TK-10 renal, 10.9 µM in the assay with ACHN renal and 12.4 µM in the assay on UACC-62 melanoma.
On to `CCOc1ccc(S(=O)(=O)/N=C2\C=C(SCC(=O)O)C(=O)c3ccccc32)cc1`, for which the GI50 was 2.95 µM in the assay on SF-268 CNS; 2.05 µM in the assay with RPMI-8226 leukemia; 2.38 µM in the assay on MOLT-4 leukemia; 2.92 µM with PC-3 prostate; 2.82 µM in the assay on OVCAR-8 ovarian; 3.1 µM with U251 CNS. Further, the GI50 is 7.76 µM with CAKI-1 renal, 26.5 µM with TK-10 renal, 6.8 µM in the assay on ACHN renal and 1.99 µM in the assay on UACC-62 melanoma. Also, the TGI with SF-268 CNS came to 12.2 µM; in the assay on RPMI-8226 leukemia, 13.2 µM; in the assay with MOLT-4 leukemia, 6.06 µM; with PC-3 prostate, 13.1 µM; in the assay with OVCAR-8 ovarian, 10.3 µM; in the assay on U251 CNS it was 9.23 µM. The TGI with CAKI-1 renal came out at 20.8 µM; with TK-10 renal, 56.9 µM; in the assay on ACHN renal, 20.2 µM; with UACC-62 melanoma, 3.8 µM.
Turning to `CN=C(N)N/N=C(\c1ccccc1)c1ccc(Br)cc1`, the GI50 in the assay on SF-268 CNS is 0.685 µM; in the assay on RPMI-8226 leukemia, 0.441 µM; in the assay on MOLT-4 leukemia, 0.362 µM; in the assay on PC-3 prostate it was 0.402 µM; in the assay on OVCAR-8 ovarian, 0.369 µM; with U251 CNS, 0.375 µM. In addition, the GI50 in the assay with CAKI-1 renal was 0.596 µM; in the assay on TK-10 renal, 0.709 µM; in the assay on ACHN renal, 0.467 µM; in the assay on UACC-62 melanoma, 0.859 µM. The TGI with SF-268 CNS was found to be 11.8 µM; in the assay on RPMI-8226 leukemia, 3.13 µM; with MOLT-4 leukemia, 7.3 µM; in the assay on PC-3 prostate it was 11 µM; in the assay on OVCAR-8 ovarian, 5.16 µM; in the assay on U251 CNS, 2.63 µM. Further, the TGI is 13.2 µM in the assay on CAKI-1 renal, 8.47 µM with TK-10 renal, 10.1 µM in the assay on ACHN renal and 9.16 µM in the assay on UACC-62 melanoma.
